Experimental data published in patent publication US5744476A, “Dopamine D1 agonists for the treatment of dementia” (Interneuron Pharmaceuticals, Inc., priority 1994, dated 1998).
“Also recorded” adds a separate entry of the source.

Key:
striatal acetylcholine = assay: In vivo microdialysis, striatal ACh release; design: species or system Male Sprague-Dawley rats; settings: low dose in combination with DHX
Source text: (§1) The in vivo microdialysis technique is a method for evaluating the effects of drugs on brain neurotransmitter systems by monitoring the extracellular concentration of neurotransmitters and metabolites in awake freely-moving animals. Probes are implanted directly into the brain of rats and serve to continuously sample the extracellular fluid in the vicinity of the probe. Samples containing the dialyzed extracellular fluid are collected at the outlet of the perfusion system and analyzed for content of brain neurotransmitters and metabolites by high-performance liquid chromatography coupled with electrochemical detection (HPLC-EC).
Male Sprague-Dawley rats weighing 250-350 g were group housed (n=3 per cage) in a temperature-controlled room (23±2° C.) on a 14/10 hr light cycle with free access to food and water. After the surgical procedure, animals were placed in individual cages.
The surgical procedure involved the implantation and fixation of a probe holder/guide cannula to the skull of anesthetized rats. The guide cannula was the attachment site for the rigid concentric microdialysis probes which were implanted into the awake, fully-recovered rat at the onset of the experiment. […] For placement of the guide cannulae, rats were anesthetized with ketamine:xylazine (87:13 mg/kg), shaved and placed in a stereotaxic frame (Narashige Instruments). An incision was made to expose the skull and a small hole was drilled to expose the dura mater for placement of the guide. Guide cannulae were implanted in the striatum according to the following stereotaxic coordinates with reference to bregma: AP -+1.5 mm, L -+2.6 mm and V to dura -2.5 mm (Paxinos and Watson, The rat brain in stereotaxic coordinates, 2nd. ed., Academic Press, London, 1986). The microdialysis probe extended 3.0 mm beyond the tip of the guide cannula which yielded a final ventral placement of 5.5 mm below the dura. The coordinates for placement of the guide into frontal cortex were: AP -+3.0 mm, L -+2.8 mm and V to dura 0 mm, with the probe extending 3.0 mm below the dura. Guide cannulae were fixed to the skull with dental acrylic and anchor screws and a dummy cannula was inserted into each guide for the recovery period. Animals were returned to their home cage and allowed to recover from surgery for 24-48 hrs.
For each experiment, the dialysis probe was connected to a microinfusion pump (CMA-100; Bioanalytical Systems (BAS); W. Lafayette, Ind.) equipped with a liquid switch (CMA-110; BAS) via low dead volume fused-silica tubing (I.D.=75 um; O.D.=150 um). At the time of experiment, the dummy cannula was removed and the probe was inserted through the guide into the conscious animal under light restraint.
The probe was perfused continuously with artificial CSF (composition in Mm: 121 NaCl, 3.5 KCl, 1.2 CaCl2, 1.2 MgCl2, 1.0 NaH2 PO4, 25 NaHCO3, and 0.001 neostigmine) at a flow rate of 1.5 ul/min. Dialysate samples were collected every 20 min (total sample volume=30 μl). A 20 ul aliquot was analyzed immediately for acetylcholine (ACh) content by high-performance liquid chromatography with electrochemical detection (HPLC-EC) (see below for details). A baseline period of at least one hour was allowed prior to invoking any experimental manipulations. […] Sample collection proceeded for a minimum of 3 hrs following drug administration. Upon completion of the experiment, animals were sacrificed by decapitation and brains examined grossly to verify probe placement.
DHX and SKF 81297, another D1 agonist (Andersen et al., Eur J Pharmacol 188:335, 1990), were administered ip after a stable baseline of ACh release was established in each animal. […] The effects of DHX on ACh release were evaluated in two brain regions associated with cognition (striatum, frontal cortex).

[1] = tested on: acetylcholine release in the frontal cortex; assay: In vivo microdialysis, frontal cortex ACh release; design: species or system Male Sprague-Dawley rats; settings: low dose in combination with DHX; listed as SCH 23390
Source text: as §1, with “(HPLC-EC). […]” for “(HPLC-EC).”
The probe was perfused continuously with artificial CSF (composition in Mm: 121 NaCl, 3.5 KCl, 1.2 CaCl2, 1.2 MgCl2, 1.0 NaH2 PO4, 25 NaHCO3, and 0.001 neostigmine) at a flow rate of 1.5 ul/min. […] A 20 ul aliquot was analyzed immediately for acetylcholine (ACh) content by high-performance liquid chromatography with electrochemical detection (HPLC-EC) (see below for details). […]
DHX and SKF 81297, another D1 agonist (Andersen et al., Eur J Pharmacol 188:335, 1990), were administered ip after a stable baseline of ACh release was established in each animal. […] The effects of DHX on ACh release were evaluated in two brain regions associated with cognition (striatum, frontal cortex). […]

striatal ACh output = settings: 0.3 mg/kg; cited from earlier work
cortical ACh release = settings: in vivo; cited from earlier work
[2] = tested on: CADs due to lesions of the medial projection of the basal forebrain to the cortex; settings: cited from earlier work
[3] = tested on: behavioral effects previously associated with D2 antagonists; settings: in vivo; cited from earlier work

With `CN1CCc2cc(Cl)c(O)cc2[C@@H](c2ccccc2)C1` [SCH23390] the “stimulatory effect of DHX on striatal ACh release (blockade)” value (striatal acetylcholine) was “completely block the stimulatory effect of DHX on striatal ACh release”, the “stimulatory effect of DHX on striatal ACh release (blockade)” value (striatal acetylcholine; listed as SCH 23390) was “completely block the stimulatory effect of administering DHX on striatal acetylcholine release” and the “stimulatory effect of DHX on ACh release in the frontal cortex (blockade)” value [1] was “completely block the stimulatory effect of administering DHX on acetylcholine release in the frontal cortex; also recorded: sensitive to antagonism by SCH 23390”. The “effect of D1 agonist on striatal ACh output (blockade)” value (striatal ACh output) was “blocked”, the “D1 agonist-induced increase in cortical ACh release (blockade)” value (cortical ACh release) was “blocked selectively” and the “choice accuracy deficits due to lesions” value [2] was “reversed CADs due to lesions of the medial projection of the basal forebrain to the cortex”. The behavioral effects [3] was “mimic some of the behavioral effects previously associated with D2 antagonists”.
